# Test system: Acidovorax delafieldii (ATCC #17505)
# Experiment: Bactericidal properties of silver nanofluids, colony count on NB agar plates
# Format: cell-based
# Experimental: The addition of nanostructures to fluids can prevent bacterial growth. The bactericidal properties of spherical silver colloid and silver nanorods was measured and compared with the bactericidal properties of silver nitrate. Lyophilized Acidovorax delafieldii (ATCC #17505) bacterium was reconstituted in Difco Nutrient Broth (NB), streaked onto NB agar plates and incubated for 24 hours at 37° C. A single colony was isolated and used to inoculate an NB culture that was grown to mid-log phase where the visibly cloudy solution has an optical density of 0.3 at a wavelength of 600 nm. 10 μL of this preculture (˜2.3×10^4 CFU/mL) was mixed with 5 mL of NB medium that contained 0.2 mg/mL, 0.02 mg/mL, 2 μg/mL, 0.02 μg/mL, and 0.002 μg/mL concentrations of either silver nitrate (AgNO3), silver colloid, or silver nanorods. […] Viable cells were enumerated by the colony count method on NB agar plates.
compound,measurement,setting,value
"O=[N+]([O-])[O-].[Ag+] [AgNO3, silver nitrate]",biocide activity compared with other silver samples,"28 hours, 37° C.",highest biocide activity
same,CFU/mL,"Acidovorax delafieldii in NB after 28 hours of incubation at 37° C., sample concentration as in Sample cell (text: 0.2 μg/mL Ag)",1.2 × 10^3 CFU/mL
